# From patent US20240335428A1, “PATEAMINE A DERIVATIVE FOR TREATING PANCREATIC CANCER” (Baylor University, priority 2023, published 2024)
# How the values were obtained:
# [1] = test system: PDAC cell lines: MIA PaCa-2; PANC-1; Capan-1; AsPC-1; assay: Cell proliferation / viability assay (CellTiter-Glo); assay type: cell-based; details: for cell proliferation (viability): PDAC cells, 48 h and 72 h, Cell-Titer Glo
# Experimental: FIGS. 2A-2D are viability curves of DMDAPatA and DMPatA in four representative PDAC cell lines: MIA PaCa-2; Panc-1; Capan-1; and AsPC-1. PDAC cell lines were treated with DMPatA and DMDAPatA at the indicated concentrations for 48 h and 72 h. Cell viability was determined using Cell-Titer Glo (Promega). Viability (%, Y-axis) was plotted against drug concentration (log nM, X-axis). In the figures, MZ is DMPatA and PatA is DMDAPatA.
# See Example 2. FIGS. 2A-2D are viability curves of DMDAPatA and DMPatA in four representative PDAC cell lines: MIA PaCa-2; PANC-1; Capan-1; and AsPC-1.
# In this example, the effectiveness of DMPatA and DMDAPatA in reducing the proliferation of PDAC cancer cell lines is described.
# Cell viability was measured using CellTiter-Glo® reagent (Promega, #G7570), according to the manufacturer's instructions. Briefly, cells were seeded at a density of […] in white 96-well plates and allowed to grow overnight. Cells were then treated with/without the combination and single agents as described earlier and incubated 37° C. and 5% CO2 for appropriate time points. After incubation assay reagent was added to the cells and luminescent signal values were quantified using microplate reader (PHERAstar® FS, BMG LABTECH, Ortenberg, Germany).
# [2] = test system: Cyclin D1; assay: Western blot of oncoproteins in PDAC cell lines; assay type: cell-based; details: PDAC cell lines MIA PaCa-2 and AsPC-1, western blot
# Excerpt: (§1) FIGS. 3A and 3B are images of western blots showing the effect of DMDAPatA and DMPatA in PDAC cell lines (MiaPaca-2 and AsPc-1). In the figures, MZ735 is DMPatA and PatA is DMDAPatA.
# (§2) FIGS. 5A and 5B are images of western blots showing the effect of DMPatA and DMDAPatA on oncoproteins c-MYC and Cyclin D1 in PDAC cell lines: MIA PaCa-2; PANC-1; Capan-1; and AsPC-1. In the figures, MZ is DMPatA and PatA is DMDAPatA.
# (§3) eIF4A inhibitors selectively repress the expression levels of key proteins in PDAC cell lines. FIGS. 3A and 3B are images of western blots showing the effect of DMDAPatA and DMPatA in PDAC cell lines (MIA PaCa-2 and AsPC-1). […] These proteins are commonly used as controls in western blot analysis and are so-called because they are typically not susceptible to agents that alter gene or protein expression.
# (§4) FIGS. 5A and 5B are images of western blots showing the effect of DMPatA and DMDAPatA on oncoproteins c-MYC and Cyclin D1 in PDAC cell lines: MIA PaCa-2; PANC-1; Capan-1; and AsPC-1.
# [3] = test system: c-MYC; assay: Western blot of oncoproteins in PDAC cell lines; assay type: cell-based; details: PDAC cell lines MIA PaCa-2 and AsPC-1, western blot
# Excerpt: as §1, §2, §3, §4
# [4] = test system: hyaluronic acid; assay: Hyaluronic acid staining (biotinylated-HABP, confocal imaging, CTCF); assay type: cell-based; details: MIA PaCa-2 cells, 5 nM DMPatA, 24 h versus untreated control, CTCF (P<0.05)
# Experimental: (§5) CD44 is the cell surface receptor for hyaluronic acid. Dense stroma with high levels of hyaluronic acid and extracellular matrix are among factors that are said to contribute to drug resistance in PDAC due to reduced permeability of anticancer therapies. Reduction of CD44 could facilitate the activity of chemotherapy or other combination therapy. MIA PaCa-2 cells were treated with 5 nM of DMPatA for 24 h versus untreated control. Cells were stained for HA using biotinylated-HABP and anti-CD44. FIG. 6A compares the analysis of the corrected total cell fluorescence (CTCF) based on data extracted from confocal imaging (P<0.05) and FIG. 6B compares western blot showing the effect of DMPatA and DMDAPatA on stromal proteins HAS3 and CD44. In the figures, MZ and MZ735 are DMPatA and PatA is DMDAPatA.
# (§6) MIA PaCa-2 cells were treated with 5 nM of DMPatA for 24 h versus untreated control. Cells were stained for HA using biotinylated-HABP and anti-CD44. FIG. 6A compares the analysis of the corrected total cell fluorescence (CTCF) based on data extracted from confocal imaging (P<0.05) and FIG. 6B compares western blot showing the effect of DMPatA and DMDAPatA on stromal proteins HAS3 and CD44.
# [5] = test system: CD44; assay: CD44 level (anti-CD44 confocal imaging, western blot); assay type: cell-based; details: MIA PaCa-2 cells, 5 nM DMPatA, 24 h, CTCF (P<0.05)
# Experimental: as §5, §6
# [6] = Protein binding in human plasma; assay type: in vitro ADME
# [7] = compared with parent natural product PatA; cited from earlier work
# [8] = test system: Mia-Paca-2 cells; assay: Mouse xenograph model (subcutaneous Mia-Paca-2 tumors); assay type: in vivo, female athymic nude mice
# Excerpt: In this example, the effectiveness of DMPatA in reducing tumor size in a mouse xenograph model is described.
# Intraperitoneal therapy for PDAC. One of the most difficult complications of pancreatic cancer is the development of peritoneal carcinomatosis, which may occur as the presenting manifestation of PDAC, much as occurs with ovarian cancer, or may appear late in the course of the disease. In either case, the prognosis for peritoneal carcinomatosis and cytology-positive ascites is grim, at times portending survival of only a few weeks. […] The second major problem is that recurrent ascites requires frequent large volume paracentesis—which depletes the patient of protein and nutrients. […] Des-methyl pateamine A (DMPatA, MZ735) can be used as a novel intraperitoneal therapy able to directly treat intraperitoneal carcinomatosis. In certain embodiments, the safe intraperitoneal dose is 0.075-0.1 mg/kg, as established in a mouse xenograpgh model.
# Fifteen female athymic nude mice were implanted with 5×10^6 Mia-Paca-2 cells, injected subcutaneously into the right flank with 50% Matrigel. Once tumors reached 100-200 mm^3 in volume, mice were randomized and enrolled into the study with three treatment groups including vehicle, MZ735 0.075, MZ735 0.1 mg/kg.
# Mice were dosed once every four days interperitoneally (IP) for 28 days. Weights were taken twice per week to ensure overall health. All formulations were prepared on a day prior to, or on the day of dosing, using a serial dilution method and stored at 4° C. Formulations for this study were made using a vehicle of 10% Ethanol, 10% Cremophor EL, 4% glucose, and 76% PBS.
# Body weights and tumor measurements were recorded twice weekly per OPTIC core-Tumor Growth Measurement at Columbia University.
# At the end of the study mice were euthanized via CO2 asphyxiation, per IACUC approved Euthanasia protocol at Columbia University.
# [9] = test system: GAPDH and beta-actin; assay: Western blot of housekeeping proteins; assay type: cell-based; details: PDAC cell lines
# Excerpt: as §1, §3
compound,measurement,setting,value
"CC(/C=C/C(C)=C/[C@@H]1Cc2nc(cs2)CCCCC(=O)O[C@@H](C)C/C(C)=C/C=C\C(=O)O1)=C\CN(C)C [DMDAPatA, des-methyl des-amino pateamine A]",cell proliferation (viability),[1],inhibit cell proliferation
same,protein level of Cyclin D1,[2],inhibiting the protein level
same,protein level of c-MYC,[3],inhibiting the protein level
same,levels of hyaluronic acid,[4],reduce the levels
same,levels of CD44,[5],reduce the levels
same,protein binding in human plasma,[6],highly protein bound
same,stability relative to PatA,[7],more stable
des-methyl pateamine A [DMPatA],volume of subcutaneously implanted tumors,"[8]; 0.075-0.1 mg/kg IP once every four days for 28 days, Mia-Paca-2 xenograft",reduce the volume of subcutaneously implanted tumors
same,absorption via the peritoneum,"[8]; intraperitoneal dose 0.075-0.1 mg/kg, mouse",can be absorbed via the peritoneum
same,safe intraperitoneal dose,"[8]; mouse xenograph model, intraperitoneal",0.075 to 0.1 mg/kg
same,cell proliferation (viability),[1],inhibit cell proliferation
same,potency relative to DMDAPatA,[1]; viability curves in four PDAC cell lines,greater potency relative to DMDAPatA
same,protein level of Cyclin D1,[2],inhibiting the protein level
same,protein level of c-MYC,[3],inhibiting the protein level
same,expression of housekeeping proteins GAPDH and beta-actin,[9],stably expressed
same,levels of hyaluronic acid,[4],reduce the levels
same,levels of CD44,[5],reduce the levels
